From US20060084615A1, “Puerarin derivatives and their medical uses” (priority 2004, published 2006)

Columns and labels:
[1] = in vivo
Description: Agilent 1100 HPLC, DAD diode, HP1100 chromatography workstation and Agilent XDB-C18 column (250 mm×4.6 mm D, 5 μm) were used. The pre-column is Agilent XDB-C18 column (12.5 mm×4.6 mm D, 5 μm). Gradient elution was carried according to Table 1 below: […]
Sprague-Dawley (SD) rats weighing 180±20 g, both male and female were provided by the Laboratory Animal Centre of the Guangzhou Traditional Chinese Medicine (TCM) University.
Two hundred and sixty SD rats were randomly divided into 20 groups with 13 rats in each group. The rats were fasted for one day before the test.
Puerarin, 4ac, 5ac and 6ac was dissolved in sterilized water to produce suspension of final dosage of 400 mg/kg, 560 mg/kg, 600 mg/kg and 640 mg/kg, 10 ml/kg and administered orally to the rats.
At t=10, 20, 30, 45, 60, 90, 120 min, 2 h, 4 h, 6 h, 7 h, 8 h and 12 h after administration, 3 ml of blood was collected from the femoral vein of each animal and kept in a centrifuge tube at room temperature for 0.5 h. The blood was centrifuged at 3000 r/min for 15 min and the serum was taken for analysis.
Serum (0.5 ml) was added with 0.2 ml methanol and mixed with a vortex mixer for 1 min. The mixture was then centrifuged at 3000 r/min for 15 min. The supernatant was dried by nitrogen gas flow and the residue was dissolved in 0.2 ml methanol. The mixture was again centrifuged at 10000 r/min for 10 min and the supernatant subjected to HPLC analysis.
The samples were treated, applied and as stated in section 2.2, and the serum concentration of each compound was calculated by the one-point external standard method. The calculated data were processed using the 3P97 pharmacokinetics statistics software supplied by the Mathematics Committee of the China Pharmacology Association.

[2] = tested on: myocardial ischemic rats induced by posterior pituitary injection; assay: Acute myocardial ischemia induced by posterior pituitary extract injection, ECG T wave variation; format: in vivo, SD rats; conditions: for Amplitude of T wave: i.g. 5 days plus day 6, X ± SD, n = 10; for Effect against myocardial ischemia in rats induced by posterior pituitary injection: doses 0.8 g/kg puerarin, 1.12 g/kg 4ac, 1.20 g/kg 5ac, 1.28 g/kg 6ac (equivalent to 0.8 g/kg puerarin)
Description: Puerarin was purchased from Beijing Union Pharmaceutical Factory (PRC). Puerarin derivatives 4ac, 5ac and 6ac were supplied by The Hong Kong Polytechnic University. The puerarin was dissolved in 1:1 of PEG400 and sterilized distilled water to make 0.8 g/kg body weight, 10 ml/kg body weight solutions for i.g. feeding.
Puerarin derivative 4ac was dissolved in 1:1 of PEG400 and sterilized distilled water to make 1.12 g/kg, 10 ml/kg solution for intra-gastro (i.g.) feeding. Puerarin derivative 5ac was dissolved in 1:1 of PEG400 and sterilized distilled water to make 1.20 g/kg, 10 ml/kg solution for i.g. feeding. Puerarin derivative 6ac was dissolved in 1:1 of PEG400 and sterilized distilled water to make 1.28 g/kg, 10 ml/kg solution for ig feeding. The concentrations of each solution were selected such that 0.8 g/kg of equivalent puerarin will be administered to each animal.
Propranolol hydrochloride at 10 mg/tablet, was from the Shantou Jinshi Pharmaceuticals (PRC, batch no: 020802). Propranolol hydrochloride is a drug prescribed for myocardial ischemia. It is expected to decrease the T wave elevation in ECG during myocardial ischemia. The drug was dissolved in sterilized distilled water to make a 0.2 mg/ml, 10 ml/kg solution for i.g. feeding.
Sixty SPF grade SD rats weighing 200±20 g of both sexes were grouped evenly into six groups according to their weight and sex, and fed i.g. according to the following protocol: • a) Normal: distilled water 10 ml/kg; • b) Positive control: propranolol hydrochloride […], 10 ml/kg; • c) Puerarin solution: puerarin 0.8 g/kg, 10 ml/kg; • d) Puerarin derivative 4ac solution: 4ac 1.12 g/kg, 10 ml/kg; • e) Puerarin derivative 5ac solution: 5ac 1.20 g/kg, 10 ml/kg; • f) Puerarin derivative 6ac solution: 6ac 1.28 g/kg, 10 ml/kg.
The rats were administered the respective treatments for five consecutive days. On the sixth day, one hour after the administration of the treatment, the rats were anesthetized with 3% pentobarbital sodium at a dose of 40 mg/kg i.p. Two terminal leads were connected to the rats to record the normal electrocardiograph (ECG).
When the ECG reading became steady, 1 u/kg of posterior pituitary extract injection (obtained from the Nanjing Xintian Biochemical Pharmaceuticals Company Ltd; batch no 020601) was given intraveneously at the tail vein. Posterior pituitary extract induces acute myocardial ischemia. On ECG, the extract causes the T wave to elevate, flatten and sometimes invert. It also elevates the ST segment and lengthens the PR and QT intervals.
The ECG was recorded immediately for 30 minutes. The variations in T wave were calculated and analyzed statistically.

[3] = 5 s after posterior pituitary injection
[4] = 15 s after posterior pituitary injection
[5] = 30 s after posterior pituitary injection
[6] = 2 min after posterior pituitary injection
[7] = 5 min after posterior pituitary injection
[8] = 10 min after posterior pituitary injection
[9] = oral suspension, SD rats, serum puerarin by HPLC, puerarin 400, 4ac 560, 5ac 600, 6ac 640 mg/kg

| Pharmacokinetic compartment model fitted (3P97 software) ([1]; rat, in vivo, po) | AUC(0-∞) = area under concentration-time curve ([1]; rat, in vivo, po, 640 mg/kg) | CL = total body clearance ([1]; rat, in vivo, po, 640 mg/kg) [mg/kg/min/µg/mL] | SMILES | Amplitude of T wave [2, 3] [μV] | Amplitude of T wave [2, 4] [μV] | Amplitude of T wave [2, 5] [μV] | Amplitude of T wave [2, 6] [μV] | Amplitude of T wave [2, 7] [μV] | Amplitude of T wave [2, 8] [μV] | Effect against myocardial ischemia in rats induced by posterior pituitary injection [2] | Pharmacokinetic compartment model fitted (3P97 software) ([1]; oral, SD rats) | further results |
| --- | --- | --- | --- | --- | --- | --- | --- | --- | --- | --- | --- | --- |
| one-compartment open model | 6104.81 ± 275.29 (μg/ml)min | 0.1030 ± 0.0163 | CC(=O)OCC1OC(c2c(O)ccc3c(=O)c(-c4ccc(O)cc4)coc23)C(OC(C)=O)C(OC(C)=O)C1OC(C)=O (stereo not shown) [Compound 4ac, 2″,3″,4″,6″-0-tetraacetylpuerarin] | 15.09 ± 7.62 | 23.23 ± 10.69 | 35.40 ± 10.93 | 36.51 ± 16.02 | 25.60 ± 14.23 | 25.41 ± 10.21 | effective |  | C(max) relative to that of puerarin ([1]; both, Sprague-Dawley, rat, in vivo, po): 1.90 folds; AUC compared with puerarin (t test) ([1]; rat, in vivo, po): significantly greater; AUC relative to that of puerarin ([1]; rat, in vivo, po): 2.24 folds; Bioavailability compared with puerarin ([1]; rat, in vivo, po): higher than puerarin and other derivatives |
|  |  |  | CC(C)NCC(O)COc1cccc2ccccc12.Cl (stereo not shown) [+ve control, Propranolol hydrochloride, reference compound] | 16.11 ± 5.30 | 18.51 ± 9.26 | 22.10 ± 11.23 | 30.41 ± 11.58 | 26.62 ± 10.99 | 22.09 ± 11.31 |  |  |  |
| two-compartment open model | 4566.95 ± 762.64 (μg/ml)min | 0.1011 ± 0.0425 | CC(=O)OCC1OC(c2c(OC(C)=O)ccc3c(=O)c(-c4ccc(O)cc4)coc23)C(OC(C)=O)C(OC(C)=O)C1OC(C)=O (stereo not shown) [Compound 5ac, 7,2″,3″,4″,6″-0-pentaacetylpuerarin] | 19.09 ± 6.20 | 29.42 ± 9.39 | 37.61 ± 13.43 | 40.11 ± 16.04 | 24.50 ± 13.63 | 24.39 ± 14.28 | effective |  | t1/2(a) = half-life of absorption ([1]; rat, in vivo, po, 640 mg/kg): 0.368613 ± 0.311893 h; t1/2(β) = half-life of clearance ([1]; rat, in vivo, po, 640 mg/kg): 7.0838 ± 4.228 h |
|  |  |  | CC(=O)OC[C@H]1O[C@@H](c2c(OC(C)=O)ccc3c(=O)c(-c4ccc(OC(C)=O)cc4)coc23)[C@H](OC(C)=O)[C@@H](OC(C)=O)[C@@H]1OC(C)=O [Compound 6ac, Hexa-0-acetyl puerarin] | 16.33 ± 9.18 | 29.09 ± 16.50 | 39.12 ± 15.21 | 41.05 ± 15.60 | 29.14 ± 10.60 | 22.11 ± 9.81 | effective | two-compartment open model | AUC(0-∞) = area under concentration-time curve [1, 9]: 3149.69 ± 467.26 (μg/ml)min; C (max) = maximum concentration reached by the compound [1, 9]: 4932.4 ± 69.5 ng/mL; CL = total body clearance [1, 9]: 0.1696 ± 0.1206 mg/kg/min/µg/mL; T(peak) = time the compound takes to reach the absorption peak [1, 9]: 81.39 ± 10.02 min; t1/2(a) = half-life of absorption [1, 9]: 1.86617 ± 1.811 h; t1/2(β) = half-life of clearance [1, 9]: 44.4162 ± 6.3323 h |

| SMILES | Pharmacokinetic compartment model fitted (3P97 software) ([1]; rat, in vivo, po) | AUC(0-∞) = area under concentration-time curve ([1]; rat, in vivo, po, 640 mg/kg) | CL = total body clearance ([1]; rat, in vivo, po, 640 mg/kg) [mg/kg/min/µg/mL] | Amplitude of T wave [2, 3] [μV] | Amplitude of T wave [2, 4] [μV] | Amplitude of T wave [2, 5] [μV] | Amplitude of T wave [2, 6] [μV] | Amplitude of T wave [2, 7] [μV] | Amplitude of T wave [2, 8] [μV] | Effect against myocardial ischemia in rats induced by posterior pituitary injection [2] | Pharmacokinetic compartment model fitted (3P97 software) ([1]; oral, SD rats) | further results |
| --- | --- | --- | --- | --- | --- | --- | --- | --- | --- | --- | --- | --- |
| O=c1c(-c2ccc(O)cc2)coc2c([C@@H]3O[C@H](CO)[C@@H](O)[C@H](O)[C@H]3O)c(O)ccc12 [Puerarin] |  | 2729.94 ± 491.99 (μg/ml)min | 0.2032 ± 0.0541 | 18.06 ± 10.09 | 25.69 ± 11.21 | 31.22 ± 14.59 | 39.20 ± 16.11 | 29.10 ± 16.23 | 25.01 ± 10.40 | effective | two-compartment open model | half-life ([1]; both, Sprague-Dawley, rat, in vivo, po, 640 mg/kg, t1/2(a) = half-life of absorption): 0.89 ± 0.189 h; half-life ([1]; both, Sprague-Dawley, rat, in vivo, po, 640 mg/kg, t1/2(β) = half-life of clearance): 1.015 ± 0.00719 h |
